Assays:
Experiment in all cases: relative viability (nuclei count vs DMSO), 5 days (fraction); higher = more cells survive
[1] = compound: CCN1CCC(CC1)N2C=C(N=N2)CNC3=CC4=C(C(=CN=C4C(=C3)Cl)C#N)NC5=CC(=C(C=C5)F)Cl [KIN001-266] + O=C(c1cc(Cc2n[nH]c(=O)c3ccccc23)ccc1F)N1CCN(C(=O)C2CC2)CC1 [Olaparib] (partner 8 µM)
How it was run: (§1)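 Dosing by pin tool came one day after lung cancer cell lines were seeded in 1536-well plates, using either one drug or a fixed anchor-drug dose plus five library-drug doses (not always all listed) in √10 steps. After 5 days, nuclei were counted on 4× images. Relative viability is treated-well nuclei count divided by vehicle-well nuclei count, and values are medians of duplicate plates.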

[2] = compound: CCN1CCC(CC1)N2C=C(N=N2)CNC3=CC4=C(C(=CN=C4C(=C3)Cl)C#N)NC5=CC(=C(C=C5)F)Cl [KIN001-266] + CC(=O)Nc1cccc(-n2c(=O)n(C3CC3)c(=O)c3c(Nc4ccc(I)cc4F)n(C)c(=O)c(C)c32)c1 [Trametinib] (partner 0.02 µM)
How it was run: as §1

[3] = compound: CCN1CCC(CC1)N2C=C(N=N2)CNC3=CC4=C(C(=CN=C4C(=C3)Cl)C#N)NC5=CC(=C(C=C5)F)Cl [KIN001-266] + N=C(N)NC(=N)NCCc1ccccc1 [Phenformin] (partner 250 µM)
How it was run: as §1

[4] = compound: CCN1CCC(CC1)N2C=C(N=N2)CNC3=CC4=C(C(=CN=C4C(=C3)Cl)C#N)NC5=CC(=C(C=C5)F)Cl [KIN001-266]
How it was run: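 Lung cancer cell lines were seeded into 1536-well plates, kept overnight at 37 °C and pinned with five library-drug doses (not always all listed) spaced by √10. After 5 days, nuclei were Hoechst-stained, imaged at 4× and counted with MetaXpress. Viability is treated-well nuclei over vehicle-well nuclei, taken as a median across plates. Plates needed control CV below 25% and at least one doubling.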

Row | Cell Line | relative viability ([1]; first compound 0.08 µM) | relative viability ([1]; first compound 0.253 µM) | relative viability ([1]; first compound 0.8 µM) | relative viability ([1]; first compound 2.53 µM) | relative viability ([1]; first compound 8 µM) | relative viability ([2]; first compound 0.08 µM) | relative viability ([2]; first compound 0.253 µM) | relative viability ([2]; first compound 0.8 µM) | relative viability ([2]; first compound 2.53 µM) | relative viability ([2]; first compound 8 µM) | relative viability ([3]; first compound 0.08 µM) | relative viability ([3]; first compound 0.253 µM) | relative viability ([3]; first compound 0.8 µM) | relative viability ([3]; first compound 2.53 µM) | relative viability ([3]; first compound 8 µM) | relative viability ([4]; 0.08 µM) | relative viability ([4]; 0.253 µM) | relative viability ([4]; 0.8 µM) | relative viability ([4]; 2.53 µM) | relative viability ([4]; 8 µM)
1 | CAL-12T | 0.785 | 0.732 | 0.663 | 0.652 | 0.633 | 0.357 | 0.442 | 0.351 | 0.293 | 0.37 | 0.571 | 0.545 | 0.515 | 0.568 | 0.534 | 1.07 | 0.965 | 0.956 | 1.09 | 0.994
2 | COR-L23 | 0.372 | 0.367 | 0.345 | 0.293 | 0.294 | 0.634 | 0.667 | 0.651 | 0.512 | 0.486 | 0.439 | 0.452 | 0.452 | 0.455 | 0.368 | 1 | 0.984 | 1.02 | 0.983 | 0.828
3 | NCI-H1755 | 0.933 | 0.865 | 0.896 | 0.864 | 0.815 | 0.727 | 0.802 | 0.775 | 0.792 | 0.684 | 0.643 | 0.62 | 0.625 | 0.621 | 0.549 | 0.968 | 0.994 | 0.995 | 0.975 | 0.96
4 | NCI-H1437 | 0.644 | 0.649 | 0.666 | 0.582 | 0.377 | 0.581 | 0.577 | 0.539 | 0.561 | 0.383 | 0.346 | 0.272 | 0.286 | 0.291 | 0.251 | 0.976 | 0.988 | 1.02 | 0.994 | 0.883
5 | NCI-H2085 | 0.763 | 0.791 | 0.725 | 0.721 | 0.598 | 0.569 | 0.457 | 0.567 | 0.558 | 0.541 | 0.855 | 0.741 | 0.663 | 0.669 | 0.632 | 1 | 1.04 | 0.865 | 0.973 | 0.777
6 | H3255 | 0.583 | 0.55 | 0.565 | 0.517 | 0.455 | 0.545 | 0.581 | 0.643 | 0.659 | 0.484 | 0.356 | 0.373 | 0.353 | 0.353 | 0.345 | 1.01 | 1.06 | 0.96 | 0.96 | 0.78
7 | NCI-H650 | 0.452 | 0.381 | 0.349 | 0.336 | 0.34 | 0.982 | 0.974 | 0.942 | 0.944 | 0.979 | 0.499 | 0.503 | 0.495 | 0.463 | 0.507 | 1.03 | 0.972 | 1.13 | 0.955 | 1.15
8 | LCLC-103H | 0.727 | 0.762 | 0.722 | 0.742 | 0.756 | 0.715 | 0.73 | 0.592 | 0.645 | 0.668 | 0.389 | 0.28 | 0.285 | 0.361 | 0.332 | 1.08 | 1.04 | 1.08 | 1.06 | 1.02
9 | LOU-NH91 | 0.909 | 0.903 | 0.761 | 0.842 | 0.757 | 0.83 | 0.753 | 0.698 | 0.727 | 0.748 | 0.716 | 0.737 | 0.489 | 0.637 | 0.552 | 1.07 | 1.04 | 0.737 | 0.85 | 0.845
10 | NCI-H1650 | 0.708 | 0.751 | 0.655 | 0.587 | 0.437 | 0.581 | 0.602 | 0.42 | 0.457 | 0.373 | 0.479 | 0.448 | 0.326 | 0.261 | 0.305 | 0.964 | 1.01 | 0.895 | 0.805 | 0.464
11 | NCI-H3122 | 0.588 | 0.689 | 0.636 | 0.576 | 0.524 | 0.234 | 0.218 | 0.223 | 0.232 | 0.292 | 0.349 | 0.367 | 0.325 | 0.274 | 0.307 | 0.967 | 1.02 | 1.01 | 0.919 | 0.95
12 | PC-3 [JPC-3] | 1.09 | 1.21 | 1.08 | 1.14 | 0.963 | 0.785 | 0.739 | 0.554 | 0.741 | 0.607 | 0.466 | 0.496 | 0.48 | 0.475 | 0.477 | 1 | 1.06 | 0.916 | 1.03 | 0.859
13 | NCI-H1651 | 0.185 | 0.165 | 0.175 | 0.15 | 0.167 | 0.847 | 0.833 | 0.772 | 0.771 | 0.854 | 0.355 | 0.383 | 0.316 | 0.508 | 0.325 | 0.955 | 1.01 | 0.957 | 1.01 | 0.96
14 | NCI-H2087 | 0.616 | 0.494 | 0.654 | 0.374 | 0.346 | 0.254 | 0.276 | 0.16 | 0.175 | 0.175 | 0.439 | 0.467 | 0.38 | 0.352 | 0.234 | 0.957 | 1.03 | 0.94 | 1.06 | 0.786

Source: the supplement of paper PMC10307832
